Measured values reported in patent US20220184071A1, “GEPOTIDACIN FOR USE IN THE TREATMENT OF BACTERIAL URINARY TRACT INFECTIONS” (GlaxoSmithKline Intellectual Property Development Limited, priority 2019, published 2022).
In brackets after ≈: the same amount, converted by molar mass. Entries after “also recorded” stand apart in the source; their conditions may differ. Where two headings read alike, the source gives them in different places.

Tests used:
[1] = test system: S. epidermidis; experiment: MIC by CLSI broth microdilution, Example 5 second study (skin and soft tissue isolates); assay type: cell-based; conditions: Staphylococcus epidermidis; 13 isolates, 2013-2014
From the text: A second study tested gepotidacin by CLSI broth microdilution against bacterial isolates collected from patients with acute bacterial skin and soft tissue infections between 2013-2014. Amoxicillin/clavulanic acid, linezolid, fusidic acid, ceftriaxone, ceftaroline, vancomycin, penicillin, quinupristin/dalfopristin, erythromycin, clindamycin, meropenem, tetracycline, chloramphenicol, flucloxacillin, telavancin, daptomycin, trimethoprim/sulfamethoxazole, gentamicin, levofloxacin, tigecycline and cefuroxime were included as comparators. MICs were determined by broth microdilution according to CLSI methods.

[2] = test system: coagulase-negative staphylococci; experiment: MIC by CLSI broth microdilution, Example 5 Method 1; assay type: cell-based
Description: (§1) Gepotidacin was tested against 101 coagulase-negative staphylococci and 105 viridans streptococci in serial two-fold dilutions and the minimum inhibitory concentration (MIC) was determined as the lowest concentration of the compound that inhibited visible growth. All of the clinical isolates were collected in 2009-2012 from patient infections from North America, Europe, Latin America and Asia-Pacific medical centers and were mainly obtained from patients with documented nosocomial and community-acquired respiratory tract infections, bloodstream infections and skin and skin structure infections. Ceftriaxone, meropenem, penicillin, levofloxacin, moxifloxacin and linezolid were included as comparators when testing the viridans streptococci isolates. Oxacillin, levofloxacin, moxifloxacin and linezolid, were included as comparators when testing the coagulase-negative staphylococci isolates. MICs were determined by broth microdilution according to CLSI methods.

[3] = test system: viridans streptococci; experiment: as above; assay type: cell-based; conditions: 105 isolates
Description: as §1

[4] = Exposure in epithelial lining fluid (ELF) and alveolar macrophages (AM), healthy subjects; assay type: in vivo; conditions: human, single 1000 mg IV infusion over 2 hours
Description: Antibiotic target site exposures play a key role as suboptimal levels may lead to therapeutic failure and resistance. Across multiple clinical studies, exposures to gepotidacin were assessed in plasma and other matrices, such as urine, saliva, epithelial lining fluid (ELF) and Alveolar Macrophages (AM).
Bronchoalveolar lavage samples were collected to determine gepotidacin exposures in ELF and AM following a single 1000 mg IV infusion over 2 hours to healthy subjects. Saliva exposure was assessed in healthy volunteers following 1500 mg oral single dose. Gepotidacin exposures in urine was assessed in women with acute uUTI following 1500 mg BID oral doses for 5 days.

[5] = test system: Shigella sonnei; experiment: MIC by CLSI agar dilution, Example 1 Method 2; assay type: cell-based; conditions: n=64
Description: (§2) Antimicrobial activity was determined in a second study by […] using the CLSI recommended procedure in serial two-fold dilutions and the minimum inhibitory concentration (MIC) was determined as the lowest concentration of the compound that inhibited visible growth.
(§3) MICs were determined according to CLSI agar dilution guidelines.

[6] = test system: Klebsiella oxytoca, Klebsiella variicola, Proteus hauseri and Proteus peneri; experiment: MIC by CLSI agar dilution, Example 1 Method 2; assay type: cell-based; conditions: in each case against at least one isolate
Description: as §2, §3

[7] = test system: Shigella boydii; experiment: MIC by CLSI agar dilution, Example 1 Method 2; assay type: cell-based; conditions: n=3
Description: as §2, §3

[8] = test system: Shigella flexneri; experiment: MIC by CLSI agar dilution, Example 1 Method 2; assay type: cell-based; conditions: n=24
Description: as §2, §3

[9] = test system: Enterobacter (Enterobacter aerogenes, Enterobacter cloacae complex); experiment: MIC by CLSI agar dilution, Example 1 Method 2; assay type: cell-based; conditions: n = 55
Description: as §2, §3

[10] = test system: Proteus (Proteus mirabilis, Proteus penneri, Proteus hauseri); experiment: MIC by CLSI agar dilution, Example 1 Method 2; assay type: cell-based; conditions: n = 56
Description: as §2, §3

[11] = test system: Shigella; experiment: MIC by CLSI agar dilution, Example 1 Method 2; assay type: cell-based
Description: as §2, §3

[12] = test system: Klebsiella (Klebsiella oxytoca, Klebsiella variicola, Klebsiella pneumoniae); experiment: MIC by CLSI agar dilution, Example 1 Method 2; assay type: cell-based; conditions: n = 55
Description: as §2, §3

[13] = Phase IIa safety and tolerability; assay type: in vivo, human
Description: This phase IIa single center study evaluated the safety, tolerability, pharmacokinetics, and efficacy of oral gepotidacin 1500 mg BID for 5 days in female subjects with acute cystitis. Clean catch mid-stream urine specimens were obtained for quantitative culture by standard methods. Urine samples were taken from all participants pre-treatment (baseline) and at all post-baseline visits. All urine samples were sent to a central laboratory (PPD Global Clinical Laboratories, Highland Heights, Ky., USA) for Gram stain, quantitative culture, pathogen identification and susceptibility testing. See FIG. 1 for participant disposition and study outline.
Serial blood and urine PK sampling were performed for the first dose of study treatment on Day 1 and for the time-matched dose on Day 4. Participants took all doses of gepotidacin with food and remained in the clinic to complete a total of 10 doses. Participants were instructed to return for the TOC (Day 10 to 13) and Follow-up (Day 28±3) Visits.

## O=c1ccc2ncc(=O)n3c2n1C[C@H]3CN1CCC(NCc2cc3c(cn2)OCCC3)CC1 [gepotidacin, (2R)-2-({4-[(3,4-dihydro-2H-pyrano[2,3-c]pyridin-6-ylmethyl)amino]-1-piperidinyl}methyl)-1,2-dihydro-3H,8H-2a,5,8a-triazaacenaphthylene-3,8-dione]
[1]
  MIC90: 0.25 µg/mL (≈ 0.557 µM)
[2]; 101 isolates
  MIC90: 0.5 µg/mL (≈ 1.11 µM)
[2]; coagulase-negative staphylococci and viridans streptococci, except meropenem and moxifloxacin against viridans group streptococci
  MIC90 fold lower than the comparators tested: 2 to 64 fold
[3]
  MIC90: 0.5 µg/mL (≈ 1.11 µM)
[4]; alveolar macrophages, read-out: AM AUC(0-12) ratio to unbound plasma
  Kp: 178
[4]; epithelial lining fluid, read-out: ELF AUC(0-12) ratio to unbound plasma
  Kp: 1.84
[5]
  MIC90: 2 µg/mL (≈ 4.46 µM)
[6]
  MIC: ≥ 4 µg/mL
[7]
  MIC: 2 µg/mL (≈ 4.46 µM)
[8]
  MIC90: 2 µg/mL (≈ 4.46 µM)
[9]
  MIC50: 16 µg/mL (≈ 35.7 µM)
  MIC90: 32 µg/mL (≈ 71.3 µM)
  Number of Isolates at Gepotidacin MIC 2 mg/L: 3
  Number of Isolates at Gepotidacin MIC 4 mg/L: 12
  Number of Isolates at Gepotidacin MIC 8 mg/L: 7
  Number of Isolates at Gepotidacin MIC ≤0.25 mg/L: 1
  Number of Isolates at Gepotidacin MIC ≥16 mg/L: 32
[10]
  MIC50: 8 µg/mL (≈ 17.8 µM)
  MIC90: 32 µg/mL (≈ 71.3 µM)
  Number of Isolates at Gepotidacin MIC 0.5 mg/L: 3
  Number of Isolates at Gepotidacin MIC 1 mg/L: 4
  Number of Isolates at Gepotidacin MIC 2 mg/L: 11
  Number of Isolates at Gepotidacin MIC 4 mg/L: 9
  Number of Isolates at Gepotidacin MIC 8 mg/L: 10
  Number of Isolates at Gepotidacin MIC ≥16 mg/L: 19
[11]; 91 isolates
  % of the tested isolates inhibited at ≤2 mg/L: 95.6%
  % of the tested isolates inhibited at ≤8 mg/L: 100%
  MICs ranged: 0.125 to 8 mg/L
[11]; Shigella, n = 91
  MIC50: 1 µg/mL (≈ 2.23 µM)
  MIC90: 2 µg/mL (≈ 4.46 µM)
[11]; n = 91
  Number of Isolates at Gepotidacin MIC 0.5 mg/L: 18
  Number of Isolates at Gepotidacin MIC 1 mg/L: 36
  Number of Isolates at Gepotidacin MIC 2 mg/L: 19
  Number of Isolates at Gepotidacin MIC 4 mg/L: 3
  Number of Isolates at Gepotidacin MIC 8 mg/L: 1
  Number of Isolates at Gepotidacin MIC ≤0.25 mg/L: 14
[11]; where data was available
  Effect of levofloxacin non-susceptibility or QRDR substitutions in GyrA and ParC on activity: unaffected
[12]
  MIC50: 16 µg/mL (≈ 35.7 µM)
  MIC90: 64 µg/mL (≈ 143 µM)
  Number of Isolates at Gepotidacin MIC 1 mg/L: 1
  Number of Isolates at Gepotidacin MIC 4 mg/L: 6
  Number of Isolates at Gepotidacin MIC 8 mg/L: 14
  Number of Isolates at Gepotidacin MIC ≥16 mg/L: 34
[13]; N = 22
  Back pain, n (%): 2 (9)
  Chest discomfort, n (%): 2 (9)
  Gastrointestinal disorders, n (%): 21 (95)
  General disorders and administration site conditions, n (%): 2 (9)
  Headache, n (%): 5 (23)
  Infections and infestations, n (%): 6 (27)
  Nervous system disorders, n (%): 5 (23)
  Viral upper respiratory tract infection, n (%): 2 (9)
  Vomiting, n (%): 5 (23)
  Vulvovaginal mycotic infection, n (%): 2 (9)
[13]; N = 22, 1500 mg BID 5 days
  Any adverse event, n (%): 21 (95)
[13]; female, human, in vivo, 5 days
  Musculoskeletal and connective tissue disorders, n (%): 3 (14)
[13]; in vivo
  safety laboratory parameters, vital signs, ECG: no clinically relevant trends; also recorded: no clinically significant changes
  withdrawals or study treatment discontinuations due to AEs: No withdrawal due to AE; also recorded: no withdrawals or study treatment discontinuations due to AEs
[13]; mild or moderate, not treatment limiting
  Episodes of vomiting considered drug related: 4 participants
[13]; onset at day 1, improving upon repeat dosing
  intensity of GI AEs: mild or moderate
[13]; oral 1500 mg BID for 5 days
  tolerability: tolerated with no dose-limiting AEs
